Nine compounds from PubChem BioAssay (NCI) can be followed below.

What all share (assay): NCI tumour cell line growth inhibition, 48 h
For experiment [1], the system named is ACHN renal.
For experiment [2], the system named is COLO 205 colon.
Experiment [3] concerns TK-10 renal.
Experiment [4] concerns SK-MEL-5 melanoma.
Experiment [5] has as its system SK-MEL-28 melanoma.
For experiment [6], the system named is DU-145 prostate.
Experiment [7] relates to 786-0 renal.
The subject of experiment [8] is U251 CNS.
Experiment [9] concerns HT29 colon.
In experiment [10] the test system is SF-295 CNS.

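A five-concentration, 48-hour dose response in 96-well plates underlies each endpoint, interpolated linearly between surrounding concentrations. Abbreviation: GI50, concentration required for 50% inhibition of growth. TGI: concentration producing complete growth inhibition.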

In the case of `CCN(CC)CCOC(COc1cc(C)cc(C)c1)COc1cc(C)cc(C)c1`, the GI50 was 3.6 µM in experiment [1]; 1.65 µM in experiment [2]; 3.45 µM in experiment [3]; 1.75 µM in experiment [4]; 1.84 µM in experiment [5]; 3.4 µM in experiment [6]. Moreover, the GI50 in [7] is 3.2 µM; in experiment [8] it was 3.12 µM. Moreover, the TGI was 13.8 µM in experiment [1]; 3.52 µM in [2]; 14.5 µM in experiment [3]; 3.19 µM in experiment [4]; 3.77 µM in experiment [5]; 13.4 µM in experiment [6]. Besides, the TGI in experiment [7] worked out at 14.5 µM; in experiment [8], 11.5 µM.

On to `CC(C)(O)C1COC2=C1C(=O)c1ccccc1C2=O` (stereo unspecified), for which the TGI in experiment [1] is greater than 100 µM; in experiment [2], greater than 100 µM; in experiment [9] it was greater than 100 µM; in experiment [10], greater than 100 µM; in [4], 57.4 µM; in experiment [5], 46 µM. In addition, the TGI in [6] is 43.5 µM; in experiment [7], greater than 100 µM; in experiment [8] it was greater than 100 µM.

Take `O=C(Nc1ccn(C2CC(O)C(COC(c3ccccc3)(c3ccccc3)c3ccccc3)O2)c(=O)n1)c1ccccc1` (stereo unspecified): the TGI in experiment [1] amounted to 9.31 µM; in [2], 4.07 µM; in experiment [9], 3.22 µM; in experiment [10], 3.55 µM; in [4] it was 4.67 µM; in experiment [5] it was 12.1 µM. In addition, the TGI in [6] came to 17.8 µM; in experiment [7] it was 3.51 µM; in experiment [8] it was 11.4 µM.

In the case of `CCc1ccc2c(c1)C(=O)c1c-2n(CCCN)c(=O)c2cc(OC)c(OC)cc12`, the GI50 in experiment [1] is 1.68 µM; in experiment [3], 1.74 µM; in experiment [9] it was 1.56 µM; in experiment [10], 1.59 µM; in experiment [4] it was 1.44 µM; in experiment [5], 1.77 µM. The GI50 in experiment [6] is 1.62 µM; in [7], 1.68 µM; in experiment [8], 1.69 µM. The TGI was 3.07 µM in [1]; 3.28 µM in experiment [3]; 2.98 µM in experiment [9]; 3.08 µM in [10]; 2.8 µM in [4]; 3.19 µM in [5]. Also, the values for the TGI in experiment [6], in experiment [7] and in [8] were 3.07 µM, 3.11 µM and 3.11 µM, respectively.

`CCn1cc(C(=O)O)c(=O)c2cc(F)c(N3CCN(S(=O)(=O)c4ccc(Cl)cc4Cl)CC3)cc21`: the GI50 in experiment [1] was 2.62 µM; in experiment [2] it was 2.44 µM; in experiment [3] it was 4.02 µM; in [9], 3.63 µM; in [4] it was 1.87 µM; in experiment [5] it was 3.22 µM. The figures for the GI50 in experiment [6], in experiment [7] and in experiment [8] were 2.81 µM, 3.19 µM and 3.3 µM, respectively. In addition, the TGI in experiment [1] is 7.68 µM; in experiment [2], 5.1 µM; in experiment [3], 23 µM; in experiment [9], greater than 100 µM; in experiment [4], 3.93 µM; in [5] it was 13.7 µM. In addition, the TGI was 6.75 µM in experiment [6], 14.9 µM in experiment [7] and 14.7 µM in experiment [8].

Consider `CC(C)(C)N/N=C(/Cc1nc2c3c(ccc2[nH]c1=O)C(=O)c1ccccc1C3=O)C(=O)NC1=C(Cl)C(=O)c2ccccc2C1=O`, for which the TGI in experiment [1] was greater than 100 µM; in experiment [2], 89.5 µM; in [9], 30 µM; in experiment [10] it was greater than 100 µM; in experiment [4] it was 27 µM; in experiment [5], greater than 100 µM. Moreover, the TGI in experiment [6], in experiment [7] and in experiment [8] was greater than 100 µM each time.

Regarding `[Br][Pb]([c]1ccccc1)([c]1ccccc1)[c]1ccccc1`, the GI50 in [1] is 0.175 µM; in [2] it was 0.177 µM; in experiment [3], 0.175 µM; in experiment [9], 0.239 µM; in experiment [4], 0.164 µM; in experiment [5], 0.175 µM. Moreover, the values for the GI50 in experiment [6], in [7] and in experiment [8] were 0.182 µM, 0.153 µM and 0.169 µM, respectively. The TGI in experiment [1] turned out to be 0.328 µM; in experiment [2] it was 0.356 µM; in experiment [3], 0.36 µM; in experiment [9], 0.508 µM; in experiment [4], 0.312 µM; in experiment [5], 0.342 µM. Further, the results for the TGI in experiment [6], in experiment [7] and in [8] were 0.37 µM, 0.309 µM and 0.309 µM, respectively.

As to `COc1cc(C2CC(c3ccccc3)=NN2C=O)ccc1Oc1ccnc2cc(Cl)ccc12` (stereo unspecified), the GI50 in [1] is 17.4 µM; in experiment [2], greater than 100 µM; in experiment [9], greater than 100 µM; in experiment [10], 5.58 µM; in [5], greater than 100 µM; in experiment [6], greater than 100 µM. The GI50 in experiment [7] was 11.5 µM; in [8] it was 19.8 µM. The TGI is greater than 100 µM in experiment [1]; greater than 100 µM in experiment [2]; greater than 100 µM in [9]; 86.2 µM in experiment [10]; greater than 100 µM in experiment [5]; greater than 100 µM in experiment [6]. Also, the TGI in [7] was 73.7 µM; in experiment [8], greater than 100 µM.

On to `Cc1ccc(NCCNCC(C)(C)O)c2c(=O)c3ccc(Cl)cc3sc12`, for which the GI50 in [2] was 1.34 µM; in experiment [3] it was 2.17 µM; in experiment [9], 1.61 µM; in [10], 1.66 µM; in [4], 1.58 µM; in experiment [5], 1.81 µM. Further, the GI50 in experiment [6] was 1.67 µM; in [7], 1.57 µM; in [8] it was 1.67 µM. Further, the TGI in experiment [2] came to 2.92 µM; in experiment [3], 3.89 µM; in experiment [9], 3.1 µM; in experiment [10], 3.11 µM; in experiment [4], 2.95 µM; in experiment [5], 3.38 µM. In addition, the values for the TGI in experiment [6], in experiment [7] and in [8] were 3.08 µM, 3.04 µM and 3.06 µM, respectively.
